pIC50: −log10 of the molar value.
Key:
Format in all cases: cell-based
Details in all cases: Homo sapiens, LPS 100 ng/mL
[1] = tested on: IL-6; assay: Inhibition of IL-6 in PMA-differentiated, LPS-stimulated THP-1 cells (ELISA of cell supernatant)
Method: (§1) (1) Cell culture and inoculation: A stock solution of PMA at 1 mg/mL was diluted with serum-free RP1640 medium to prepare a 100 ng/mL PMA solution. Normal cultured THP-1 cells were centrifuged, resuspended in a complete medium (RP1640 medium containing 10% FBS), and counted. The cell density was adjusted to 2×10^6 cells/mL. An equal volume of 100 ng/mL PMA solution was then added, resulting in a cell density of 1×10^6 cells/mL and a final PMA concentration of 50 ng/mL. 100 μL of the cell suspension was seeded into each well of a 96-well cell culture plate with 1×10^5 cells per well. The 96-well cell culture plate was then incubated at 37° C. in a 5% CO2 atmosphere for 24 hours.
(§2) (2) Drug treatment of cells: On the second day, LPS was added to the complete medium to adjust the final concentration to 100 ng/mL, and the compound was prepared using this LPS-containing medium. The compound was added to the appropriate cell wells according to the prepared concentration gradient. The positive control group (LPS+) was a culture medium solution containing a final concentration of 100 ng/mL LPS and 0.1% DMSO without drugs, while the negative control group (LPS-) was a culture medium solution containing 0.1% DMSO without LPS. The volume in each well was 100 μL.
(§3) (3) Test sample collection: The mixture was centrifuged at 1000 rpm for 5 minutes and the cell supernatant and cell precipitate were collected separately. The cell supernatant was used to detect TNF-α and IL-6, and the cell precipitate was collected for IL-1β detection. After collecting the cell supernatant, the remaining liquid in the wells was discarded and 100 μL of cell lysis solution (20 mM Tris 8.0; 2 mM EDTA; 0.5% Triton X-100) was added to each well for complete lysis.
(§4) (4) Sample detection: The enzyme-linked immunosorbent assay (ELISA) was used to detect the content of each cytokine. The specific steps were performed according to the instructions provided in the corresponding kit manuals. The catalog numbers of kits are as follows: • Human TNF-alpha Quantikine ELISA Kit, Catalog # STA00D • Human IL-1 beta/IL-1F2 Quantikine ELISA Kit, Catalog # SLB50 • Human IL-6 Quantikine ELISA Kit, Catalog # S6050.
(§5) (5) Data analysis: The in vitro inhibitory activity of the compounds was calculated using the following formula: […]

[2] = tested on: TNF-α; assay: Inhibition of TNF-α in PMA-differentiated, LPS-stimulated THP-1 cells (ELISA of cell supernatant)
Method: as §1, §2, §3, §4, §5

[3] = tested on: IL-1β; assay: Inhibition of IL-1β in PMA-differentiated, LPS-stimulated THP-1 cells (ELISA of cell lysate)
Method: as §1, §2, §3, §4, §5

Row | Structure (SMILES) | pIC50 ([1]; THP-1, Table 7, PMA 50 ng/mL) | pIC50 ([2]; THP-1, Table 7, PMA 50 ng/mL) | pIC50 ([3]; THP-1, Table 7, PMA 50 ng/mL) | pIC50 ([1]; THP-1, Table 8, PMA 50 ng/mL) | pIC50 ([2]; THP-1, Table 8, PMA 50 ng/mL) | pIC50 ([3]; THP-1, Table 8, PMA 50 ng/mL)
1 | O=C1CCC(=O)N1CCCCNc1ccnc2cc(Cl)ccc12 [Example 11, 1-(4-((7-Chloroquinolin-4-yl)amino)butyl)pyrrolidine-2,5-dione] | 4.97 | 4.52 | 4.61 | – | – | –
2 | CCN1CCC2(C1)CN(CCCC(C)Nc1ccnc3cc(Cl)ccc13)C2 (stereo not drawn) [Example 9, 7-Chloro-N-(5-(6-ethyl-2,6-diazaspiro[3.4]octan-2-yl)pentan-2-yl)quinolin-4-amine] | 4.98 | 4.55 | 4.32 | – | – | –
3 | CC(CCCN1CCS(=O)(=O)CC1)Nc1ccnc2cc(Cl)ccc12 (stereo not drawn) [Example 1, 4-(4-((7-Chloroquinolin-4-yl)amino)pentyl)thiomorpholine-1,1-dioxide] | 6.07 | 4.50 | 4.64 | – | – | –
4 | COc1ccc(CN(CCO)CCCC(C)Nc2ncnc3cc(Cl)ccc23)cc1F (stereo not drawn) [Example 37] | 6.74 | 5.31 | 4.38 | – | – | –
5 | OCCN(CCCCCNc1ncnc2cc(F)ccc12)Cc1ncco1 [Example 48, 2-((5-((7-Fluoroquinazolin-4-yl)amino)pentyl)(oxazol-2-ylmethyl)amino)ethan-1-ol] | 6.04 | 4.83 | 4.30 | – | – | –
6 | CC1(C)NC(=O)N(CCCCCNc2ncnc3cc(Cl)ccc23)C1=O [Example 69, 3-(5-((7-Chloroquinazolin-4-yl)amino)pentyl)-5,5-dimethylimidazoline-2,4-dione] | – | – | – | 6.24 | 4.93 | 4.86
7 | O=C1CNC(=O)N1CCCCNc1ncnc2cc(Cl)ccc12 [Example 63, 3-(4-((7-Chloroquinazolin-4-yl)amino)butyl)imidazoline-2,4-dione] | – | – | – | 4.84 | 4.10 | 4.64
8 | O=C1NC2(CCCC2)C(=O)N1CCCCCNc1ncnc2cc(Cl)ccc12 [Example 66, 3-(5-((7-Chloroquinazolin-4-yl)amino)pentyl)-1,3-diazaspiro[4.4]nonane-2,4-dione] | – | – | – | 6.52 | 5.47 | 4.43
9 | CC(CCCN(CCO)Cc1ccc(F)cc1F)Nc1ncnc2cc(Cl)ccc12 (stereo not drawn) [Example 21, 2-((4-((7-Chloroquinazolin-4-yl)amino)pentyl)(2,4-difluorobenzyl)amino)ethan-1-ol] | 6.72 | 5.85 | 6.19 | – | – | –
10 | OCCN(CCCCCNc1ncnc2cc(Cl)ccc12)Cc1ccc(OC(F)(F)F)cc1 [Example 45, 2-((5-((7-Chloroquinazolin-4-yl)amino)pentyl)(4-(trifluoromethoxy)benzyl)amino)ethan-1-ol] | 5.96 | 4.90 | 4.99 | – | – | –
11 | CC(CCCN(CCO)Cc1ccc2ccccc2c1)Nc1ccnc2cc(Cl)ccc12 (stereo not drawn) [Example 25, 2-((4-((7-Chloroquinolin-4-yl)amino)pentyl)(naphthalen-2-ylmethyl)amino)ethan-1-ol] | 5.88 | 5.29 | 5.36 | – | – | –
12 | CC(CCCN(CCO)Cc1ccc(OC(F)(F)F)cc1)Nc1ccnc2cc(F)ccc12 (stereo not drawn) [Example 43] | 5.80 | 5.40 | 4.47 | – | – | –
13 | O=C1NC2(CCCC2)C(=O)N1CCCCNc1ncnc2cc(Cl)ccc12 [Example 62, 3-(4-((7-Chloroquinazolin-4-yl)amino)butyl)-1,3-diazaspiro[4.4]nonane-2,4-dione] | – | – | – | 6.12 | 5.14 | 4.29
14 | CN1CC(=O)N(CCCCCNc2ncnc3cc(F)ccc23)C1=O [Example 54, 3-(5-((7-Fluoroquinazolin-4-yl)amino)pentyl)-1-methylimidazoline-2,4-dione] | – | – | – | 5.98 | 3.94 | 3.81
15 | CC(CCCN(CCO)Cc1ccccc1)Nc1ncnc2cc(Cl)ccc12 (stereo not drawn) [Example 34, 2-(Benzyl(4-((7-chloroquinazolin-4-yl)amino)pentyl)amino)ethan-1-ol] | 5.50 | 4.48 | 4.44 | – | – | –
16 | CC(CCCN(CCO)Cc1cccc(F)c1)Nc1ccnc2cc(Cl)ccc12 (stereo not drawn) [Example 17, 2-((4-((7-Chloroquinolin-4-yl)amino)pentyl)(3-fluorobenzyl)amino)ethan-1-ol] | 6.19 | 5.33 | 4.63 | – | – | –
17 | O=C1NC2(CCCC2)C(=O)N1CCCCCNc1ncnc2cc(F)ccc12 [Example 52, 3-(5-((7-Fluoroquinazolin-4-yl)amino)pentyl)-1,3-diazaspiro[4.4]nonane-2,4-dione] | – | – | – | 6.55 | 4.55 | 4.68
18 | CC(CCCN(CCO)Cc1cccc(F)c1)Nc1ncnc2cc(Cl)ccc12 (stereo not drawn) [Example 20, 2-((4-((7-Chloroquinazolin-4-yl)amino)pentyl)(3-fluorobenzyl)amino)ethan-1-ol] | 6.33 | 5.19 | 5.23 | – | – | –
19 | OCCN(CCCCNc1ncnc2cc(Cl)ccc12)Cc1ncco1 [Example 47, 2-((4-((7-Chloroquinazolin-4-yl)amino)butyl)(oxazol-2-ylmethyl)amino)ethan-1-ol] | 5.71 | 4.24 | 6.00 | – | – | –
20 | CC(CCCN(CCO)Cc1ccccn1)Nc1ccnc2cc(Cl)ccc12 (stereo not drawn) [Example 19, 2-((4-((7-Chloroquinolin-4-yl)amino)pentyl)(pyridin-2-ylmethyl)amino)ethan-1-ol] | 6.09 | 4.84 | 5.66 | – | – | –
21 | CCOc1ncccc1CNCCCC(C)Nc1ccnc2cc(Cl)ccc12 (stereo not drawn) [Example 5, N^4-(7-Chloroquinolin-4-yl)-N^1-((2-ethoxypyridin-3-yl)methyl)pentane-1,4-diamine] | 5.40 | 4.59 | 4.71 | – | – | –
22 | COC(=O)c1ccc(CN(CCO)CCCC(C)Nc2ccnc3cc(Cl)ccc23)cc1 (stereo not drawn) [Example 27, Methyl 4-(((4-((7-chloroquinolin-4-yl)amino)pentyl)(2-hydroxyethyl)amino)methyl)benzoate] | 6.28 | 5.66 | 5.24 | – | – | –
23 | CC(CCCN1C(=O)CNC1=O)Nc1ncnc2cc(Cl)ccc12 (stereo not drawn) [Example 13, 3-(4-((7-Chloroquinazolin-4-yl)amino)pentyl)imidazolidine-2,4-dione] | 5.74 | 5.11 | 4.54 | – | – | –
24 | CC(CCCN(CCO)Cc1ncco1)Nc1ncnc2cc(Cl)ccc12 (stereo not drawn) [Example 16, 2-((4-((7-Chloroquinazolin-4-yl)amino)pentyl)(oxazol-2-ylmethyl)amino)ethan-1-ol] | 6.23 | 4.27 | 4.63 | – | – | –
25 | COC(=O)c1ccc(CN(CCO)CCCC(C)Nc2ccnc3cc(F)ccc23)cc1 (stereo not drawn) [Example 42] | 5.55 | 5.18 | 5.48 | – | – | –
26 | CC(CCCN1CC(F)(F)C1)Nc1ccnc2cc(Cl)ccc12 (stereo not drawn) [Example 10, 7-Chloro-N-(5-(3,3-difluoroazetidin-1-yl)pentan-2-yl)quinolin-4-amine] | 6.42 | 5.05 | 4.82 | – | – | –
27 | C[C@@H](CCCN1C(=O)NC2(CC2)C1=O)Nc1ncnc2cc(Cl)ccc12 [Example 77, (S)-6-(4-((7-Chloroquinazolin-4-yl)amino)pentyl)-4,6-diazaspiro[2.4]heptane-5,7-dione] | – | – | – | 5.86 | 4.64 | 4.58
28 | O=C1NC2(CCC2)C(=O)N1CCCCCNc1ncnc2cc(F)ccc12 [Example 51, 7-(5-((7-Fluoroquinazolin-4-yl)amino)pentyl)-5,7-diazaspiro[3.4]octane-6,8-dione] | – | – | – | 7.40 | 5.40 | 5.45
29 | O=C1NC2(CC2)C(=O)N1CCCCCNc1ncnc2cc(F)ccc12 [Example 55, 6-(5-((7-Fluoroquinazolin-4-yl)amino)pentyl)-4,6-diazaspiro[2.4]heptane-5,7-dione] | – | – | – | 6.47 | 4.46 | 4.19

— patent publication US20240262793A1, “QUINAZOLINE COMPOUND, AND PREPARATION METHOD THEREFOR AND APPLICATION THEREOF” (SHANGHAI PHARMACEUTICALS HOLDING CO., LTD., priority 2021, published 2024)
